In US20170056380A1, “Systems, Methods, Techniques, and Compounds in Research and Treatment of Portal Hypertension and other Conditions” (priority 2014, published 2017):

Target: T1, eNOS (Rattus norvegicus, UniProt Q62600)
T1 construct: endogenous in cells; host or cells: primary liver sinusoidal endothelial cells from male Sprague-Dawley rats (normal or bile-duct-ligated)
T1 sequence (Q62600 1-1202): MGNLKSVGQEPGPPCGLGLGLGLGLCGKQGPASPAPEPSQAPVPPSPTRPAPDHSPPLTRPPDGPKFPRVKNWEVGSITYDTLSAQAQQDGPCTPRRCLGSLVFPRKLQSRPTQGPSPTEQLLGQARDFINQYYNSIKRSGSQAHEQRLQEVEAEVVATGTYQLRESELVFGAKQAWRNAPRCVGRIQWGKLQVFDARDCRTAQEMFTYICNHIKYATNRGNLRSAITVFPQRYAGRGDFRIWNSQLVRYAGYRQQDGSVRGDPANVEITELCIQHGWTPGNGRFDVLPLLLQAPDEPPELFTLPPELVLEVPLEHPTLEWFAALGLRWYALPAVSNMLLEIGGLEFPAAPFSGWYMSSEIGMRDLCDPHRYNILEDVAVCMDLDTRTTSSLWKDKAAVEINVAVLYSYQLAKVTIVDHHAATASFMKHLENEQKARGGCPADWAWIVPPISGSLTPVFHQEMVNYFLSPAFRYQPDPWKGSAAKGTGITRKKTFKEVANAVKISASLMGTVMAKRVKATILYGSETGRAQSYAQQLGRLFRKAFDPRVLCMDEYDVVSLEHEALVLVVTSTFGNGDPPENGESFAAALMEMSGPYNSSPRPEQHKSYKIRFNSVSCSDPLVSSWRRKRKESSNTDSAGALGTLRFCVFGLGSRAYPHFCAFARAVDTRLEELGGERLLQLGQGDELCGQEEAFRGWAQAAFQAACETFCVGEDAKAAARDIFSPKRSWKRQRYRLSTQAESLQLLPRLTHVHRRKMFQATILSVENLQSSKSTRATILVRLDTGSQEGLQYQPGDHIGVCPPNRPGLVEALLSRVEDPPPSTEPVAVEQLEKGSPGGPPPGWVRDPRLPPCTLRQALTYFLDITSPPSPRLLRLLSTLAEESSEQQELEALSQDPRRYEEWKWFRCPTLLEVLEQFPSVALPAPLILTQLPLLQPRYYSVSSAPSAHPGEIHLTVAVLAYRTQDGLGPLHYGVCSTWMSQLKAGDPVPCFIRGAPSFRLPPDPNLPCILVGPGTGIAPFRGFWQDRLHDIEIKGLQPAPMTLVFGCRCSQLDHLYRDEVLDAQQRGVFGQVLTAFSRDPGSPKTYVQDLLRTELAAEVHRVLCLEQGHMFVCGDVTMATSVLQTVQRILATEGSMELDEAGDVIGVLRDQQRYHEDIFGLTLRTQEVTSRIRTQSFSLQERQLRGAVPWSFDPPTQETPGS
Test: NOS activity assay (conversion of L-[3H]arginine to L-[3H]citrulline) in sinusoidal endothelial cell lysates
Type: cell-based
Description: Cell isolation and culture. Sinusoidal endothelial cells were isolated from male Sprague-Dawley rats (450-500 g) (Harlan, Indianapolis, Ind.). In brief, after in situ perfusion of the liver with 20 mg/100 mg pronase (Roche Molecular Biochemicals, Indianapolis, Ind.), followed by collagenase (Worthington Biochemical, Lakewood, N.J.), dispersed cell suspensions were removed from a layered discontinuous density gradient of 8.2 and 15.6% Accudenz (Accurate Chemical and Scientific, Westbury, N.Y.), further purified by centrifugal elutriation (18 ml/min flow), and were grown in medium containing 20% serum (10% horse/calf). The purity of endothelial cells was documented by their uptake of fluorescently labeled di-l-acetoacetylated low-density lipoprotein as described (21). Only primary sinusoidal endothelial isolates of >95% purity were used for study. Experiments were performed with cells frorrr a minimum three different isolations (for all experiments).
Animal model of liver injury and portal hypedension. Liver injury and portal hypertension were induced by performing bile duct ligation in 450- to 500-gram male retired breeder Sprague-Dawley rats as described in Liu and 20- to 25-gram male BALB/c mice. Briefly, bile duct ligation was performed by surgical isolation and ligation of the common bile duct. This model creates a portal-based fibrogenic response and portal hypertension 10-14 days after surgery (Liu). For study of injured sinusoidal endothelial cells, we used the rat model of bile duct ligation (10-14 days postsurgery); for in vivo study (primarily to conserve the use of active compound), we used the mouse model of bile duct ligation (examining portal pressure 4 wk postsurgery). In sham-operated rats or mice, laparotomy without isolation and section of the bile duct was performed. Studies were approved by the local Institutional Animal Care and Use Committees. Portal pressure measurement. Portal hypertension was induced in male BALB/c mice by bile duct ligation as above. Cicletanine (5 mg·kg^−1·day^−1) or vehicle was given by gavage as a single daily dose for 10 days before portal pressure measurement as described in Liue. In brief, mice were anesthetized, and an intravenous catheter (Becton Dickinson Vascular Access, Sandy, Utah) was introduced in the portal vein and secured with a silk tie. A calibrated low-pressure transducer (Digi-Med, Louisville, Ky.) was connected to the portal vein catheter, and portal pressure was recorded continuously using the Digi-Med Integrator 200 System (Digi-bled).
NOS activity assay. NOS activity from sinusoidal endothelial cell lysates was assessed by measuring the conversion of L-[3H]arginine to L-[3H]citrulline as described (6) per the manufacturer's instructions (Cayman Chemical). In brief, triplicate samples of cell lysates were incubated with a reaction buffer containing 3 pmol of L-[3H]arginine (45 Ci/mmol), 0-50 μM arginine, 1 mM NADPH, 100 nM calmodulin (CaM), 2 mM CaCl2, and 30 μM BH4 in a volume of 50-100 μl at room temperature for 30 min and at 37° C. for an additional 30 min in the presence and absence of 1 mM NG-nitro-L-arginine methyl ester (L-NAME). […] Radiolabeled counts per minute of generated L-citrulline were measured and used to determine L-NAME-inhibitable NOS activity (thus, each experiment included total counts and background counts). […] The reductase activities of sinusoidal endothelial cells with or without cicletanine exposure were determined using the NADPH-dependent cytochrome c assay. […]

Cc1ncc2c(c1O)COC2c1ccc(Cl)cc1 (stereo not shown) [cicletanine, 3-(4-chlorophenyl)-1,3-dihydro-7-hydroxy-6-methylfuro-(3,4-c) pyridine]
increase in eNOS activity, 6 h compared with 2 h (cicletanine 100 nM): greater at 6 h
eNOS activity above basal level at 2 and 6 h after exposure (cicletanine 100 nM, cell lysates at 2 and 6 h): consistent increases
eNOS activity (conversion of arginine to citrulline) (cicletanine 100 nM, normal sinusoidal endothelial cells): robust eNOS activity
eNOS activity (sinusoidal endothelial cells injured by bile duct ligation, 2 h): increase
